Source: patent US9371295B2, “Compounds for use in the treatment of disorders that are ameliorated by inhibition of HDAC” (IRBM—Science Park S.p.A., priority 2012, dated 2016)
pEC50, pIC50: −log10 of the molar value.

Assays:
[1] = tested on: human γ-globin promoter (EGFP reporter) in K562 cells; experiment: HbF activation assay on K562 (EGFP/RFP reporter model system for screening of inducers of fetal hemoglobin); type: cell-based; settings: 60 hours
Outline: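 K562 cells stably carrying EGFP under the human γ-globin promoter and far-red FP under the β-globin promoter, with the LCR, were seeded at 1000 cells/well. Cells were exposed to compounds (0.25% DMSO final) for 60 h at 37 °C. Fluorescence was read by plate cytometry, normalized to Hoechst nuclei count, which also indicated proliferation or death.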

HDAC1 = biological target: T1, HDAC1 (Homo sapiens, UniProt Q13547); experiment: HDAC1 assay (Fluor-de-Lys fluorescent deacetylase assay); type: biochemical; settings: read-out: hHDAC IC50
T1 construct: made in house
Outline: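 Serially diluted compounds were pre-incubated with purified FLAG-tagged HDAC1 (1-2 nM final; from transfected HeLa cells) or HeLa nuclear extract, then given the Fluor-de-Lys acetyl-lysine substrate/developer; deacetylation read as fluorescence. Reactions were stopped with TSA (3 uM final).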

HDAC in Hela cells = experiment: HDAC Hela Cell Based assay

T1 sequence (Q13547 whole entry): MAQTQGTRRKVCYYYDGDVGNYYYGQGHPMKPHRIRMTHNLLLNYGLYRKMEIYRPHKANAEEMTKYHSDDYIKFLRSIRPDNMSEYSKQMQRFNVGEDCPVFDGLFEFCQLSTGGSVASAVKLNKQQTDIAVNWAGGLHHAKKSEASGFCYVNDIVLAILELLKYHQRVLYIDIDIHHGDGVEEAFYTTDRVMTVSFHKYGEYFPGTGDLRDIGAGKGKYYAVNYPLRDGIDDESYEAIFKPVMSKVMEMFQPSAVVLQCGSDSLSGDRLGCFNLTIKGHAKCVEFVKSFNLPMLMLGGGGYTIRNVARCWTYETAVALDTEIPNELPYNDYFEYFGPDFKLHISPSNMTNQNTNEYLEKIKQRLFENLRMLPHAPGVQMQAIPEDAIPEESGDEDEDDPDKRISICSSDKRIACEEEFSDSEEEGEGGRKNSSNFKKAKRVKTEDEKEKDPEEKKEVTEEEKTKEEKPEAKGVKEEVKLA

SMILES | pEC50 [1] | pIC50 (HDAC1) | pIC50 (HDAC in Hela cells)
CCC(=O)CCCCC[C@H](NC(=O)Cn1ccc(C)n1)c1ncc(-c2cc3ccccc3nc2OC)o1 [Compound 78, (S)-N-(1-(5-(2-methoxyquinolin-3-yl)oxazol-2-yl)-7-oxononyl)-2-(3-methyl-1H-pyrazol-1-yl)acetamide] | < 6.00 | > 7.00 | 6.00 to 7.00
CCC(=O)CCCCC[C@H](NC(=O)c1sc(C)nc1C)c1ncc(-c2cc3ccccc3nc2OC)o1 [Compound 83, (S)-N-(1-(5-(2-methoxyquinolin-3-yl)oxazol-2-yl)-7-oxononyl)-2,4-dimethylthiazole-5-carboxamide] | < 6.00 | > 7.00 | 6.00 to 7.00
CCC(=O)CCCCC[C@H](NC(=O)C1(C)CN(C)C1)c1ncc(-c2cc3ccccc3nc2OC)o1 [Compound 84, (S)-N-(1-(5-(2-methoxyquinolin-3-yl)oxazol-2-yl)-7-oxononyl)-1,3-dimethylazetidine-3-carboxamide] | 6.00 to 7.00 | > 7.00 | 6.00 to 7.00
CCC(=O)CCCCC[C@H](NC(=O)C1CCN1C)c1ncc(-c2cc3ccccc3nc2OC)o1 (stereo partly drawn) [Compound 85, N-((S)-1-(5-(2-methoxyquinolin-3-yl)oxazol-2-yl)-7-oxononyl)-1-methylazetidine-2-carboxamide] | < 6.00 | > 7.00 | 6.00 to 7.00
CCC(=O)CCCCC[C@H](NC(=O)Cc1cc2ncccn2n1)c1ncc(-c2cc3ccccc3nc2OC)o1 [Compound 89, (S)-N-(1-(5-(2-methoxyquinolin-3-yl)oxazol-2-yl)-7-oxononyl)-2-(pyrazolo[1,5-a]pyrimidin-2-yl)acetamide] | < 6.00 | > 7.00 | 6.00 to 7.00
CCC(=O)CCCCC[C@H](NC(=O)c1nnc(C)o1)c1ncc(-c2cc3ccccc3nc2OC)o1 [Compound 90, (S)-N-(1-(5-(2-methoxyquinolin-3-yl)oxazol-2-yl)-7-oxononyl)-5-methyl-1,3,4-oxadiazole-2-carboxamide] | < 6.00 | > 7.00 | 6.00 to 7.00
CCC(=O)CCCCC[C@H](NC(=O)C(C)n1nc(C)cc1C)c1ncc(-c2cc3ccccc3nc2OC)o1 (stereo partly drawn) [Compound 95, 2-(3,5-dimethyl-1H-pyrazol-1-yl)-N-((S)-1-(5-(2-methoxyquinolin-3-yl)oxazol-2-yl)-7-oxononyl)propanamide] | < 6.00 | > 7.00 | 6.00 to 7.00
CCC(=O)CCCCC[C@H](NC(=O)c1cc(C)nn1C)c1ncc(-c2cc3ccccc3nc2OC)o1 [Compound 96, (S)-N-(1-(5-(2-methoxyquinolin-3-yl)oxazol-2-yl)-7-oxononyl)-1,3-dimethyl-1H-pyrazole-5-carboxamide] | < 6.00 | > 7.00 | 6.00 to 7.00
CCC(=O)CCCCC[C@H](NC(=O)Cn1cnc2ccccc21)c1ncc(-c2cc3ccccc3nc2OC)o1 [Compound 97, (S)-2-(1H-benzo[d]imidazol-1-yl)-N-(1-(5-(2-methoxyquinolin-3-yl)oxazol-2-yl)-7-oxononyl)acetamide] | < 6.00 | > 7.00 | 6.00 to 7.00
CCC(=O)CCCCC[C@H](NC(=O)c1ccn(C)n1)c1ncc(-c2cc3ccccc3nc2OC)o1 [Compound 98, (S)-N-(1-(5-(2-methoxyquinolin-3-yl)oxazol-2-yl)-7-oxononyl)-1-methyl-1H-pyrazole-3-carboxamide] | < 6.00 | > 7.00 | 6.00 to 7.00

The next lines start with the values.

pEC50 [1] | pIC50 (HDAC1) | pIC50 (HDAC in Hela cells) | SMILES
< 6.00 | > 7.00 | 6.00 to 7.00 | CCC(=O)CCCCC[C@H](NC(=O)Cc1ncccn1)c1ncc(-c2cc3ccccc3nc2OC)o1 [Compound 79, (S)-N-(1-(5-(2-methoxyquinolin-3-yl)oxazol-2-yl)-7-oxononyl)-2-(pyrimidin-2-yl)acetamide]
< 6.00 | > 7.00 | 6.00 to 7.00 | CCC(=O)CCCCC[C@H](NC(=O)Cn1nc(C)cc1C)c1ncc(-c2cc3ccccc3nc2OC)o1 [Compound 81, (S)-2-(3,5-dimethyl-1H-pyrazol-1-yl)-N-(1-(5-(2-methoxyquinolin-3-yl)oxazol-2-yl)-7-oxononyl)acetamide]
< 6.00 | > 7.00 | 6.00 to 7.00 | CCC(=O)CCCCC[C@H](NC(=O)Cn1cncn1)c1ncc(-c2cc3ccccc3nc2OC)o1 [Compound 86, (S)-N-(1-(5-(2-methoxyquinolin-3-yl)oxazol-2-yl)-7-oxononyl)-2-(1H-1,2,4-triazol-1-yl)acetamide]
6.00 to 7.00 | > 7.00 | 6.00 to 7.00 | CCC(=O)CCCCC[C@H](NC(=O)c1ccnn1C)c1ncc(-c2cc3ccccc3nc2OC)o1 [Compound 87, (S)-N-(1-(5-(2-methoxyquinolin-3-yl)oxazol-2-yl)-7-oxononyl)-1-methyl-1H-pyrazole-5-carboxamide]
< 6.00 | > 7.00 | 6.00 to 7.00 | CCC(=O)CCCCC[C@H](NC(=O)Cn1cc2ccccc2n1)c1ncc(-c2cc3ccccc3nc2OC)o1 [Compound 88, (S)-2-(2H-indazol-2-yl)-N-(1-(5-(2-methoxyquinolin-3-yl)oxazol-2-yl)-7-oxononyl)acetamide]
6.00 to 7.00 | > 7.00 | 6.00 to 7.00 | CCC(=O)CCCCC[C@H](NC(=O)c1cccnc1)c1ncc(-c2cc3ccccc3nc2OC)o1 [Compound 91, (S)-N-(1-(5-(2-methoxyquinolin-3-yl)oxazol-2-yl)-7-oxononyl)nicotinamide]
6.00 to 7.00 | > 7.00 | 6.00 to 7.00 | CCC(=O)CCCCC[C@H](NC(=O)CCc1cnn(C)c1)c1ncc(-c2cc3ccccc3nc2OC)o1 [Compound 93, (S)-N-(1-(5-(2-methoxyquinolin-3-yl)oxazol-2-yl)-7-oxononyl)-3-(1-methyl-1H-pyrazol-4-yl)propanamide]
< 6.00 | > 7.00 | 6.00 to 7.00 | CCC(=O)CCCCC[C@H](NC(=O)c1cc(CN2CCCCC2)ns1)c1ncc(-c2cc3ccccc3nc2OC)o1 [Compound 94, (S)-N-(1-(5-(2-methoxyquinolin-3-yl)oxazol-2-yl)-7-oxononyl)-3-(piperidin-1-ylmethyl)isothiazole-5-carboxamide]
< 6.00 | > 7.00 | 6.00 to 7.00 | CCC(=O)CCCCC[C@H](NC(=O)c1csnn1)c1ncc(-c2cc3ccccc3nc2OC)o1 [Compound 99, (S)-N-(1-(5-(2-methoxyquinolin-3-yl)oxazol-2-yl)-7-oxononyl)-1,2,3-thiadiazole-4-carboxamide]
6.00 to 7.00 | > 7.00 | 6.00 to 7.00 | CCC(=O)CCCCC[C@H](NC(=O)c1ccns1)c1ncc(-c2cc3ccccc3nc2OC)o1 [Compound 100, (S)-N-(1-(5-(2-methoxyquinolin-3-yl)oxazol-2-yl)-7-oxononyl)isothiazole-5-carboxamide]
< 6.00 | > 7.00 | 6.00 to 7.00 | CCC(=O)CCCCC[C@H](NC(=O)c1snnc1C)c1ncc(-c2cc3ccccc3nc2OC)o1 [Compound 101, (S)-N-(1-(5-(2-methoxyquinolin-3-yl)oxazol-2-yl)-7-oxononyl)-4-methyl-1,2,3-thiadiazole-5-carboxamide]
< 6.00 | > 7.00 | 6.00 to 7.00 | CCC(=O)CCCCC[C@H](NC(=O)C(C)n1cccn1)c1ncc(-c2cc3ccccc3nc2OC)o1 (stereo partly drawn) [Compound 102, N-((S)-1-(5-(2-methoxyquinolin-3-yl)oxazol-2-yl)-7-oxononyl)-2-(1H-pyrazol-1-yl)propanamide]
